Assay results published in US20240287048A1, “SUBSTITUTED ACYL SULFONAMIDES FOR TREATING CANCER” (The Broad Institute, Inc., priority 2020, published 2024).

Key:
[1] = test system: ESR1 transcription in MVLN cells; test: Repression of ESR1 transcription, MVLN luciferase reporter assay; assay type: cell-based; conditions: Homo sapiens, luciferase signal after 24 h, read-out: MVLN reporter assay, IC50[M] (arithmetic mean)
Source text: KAT6A controls transcription of the ESR1 gene in breast cancer cells. Compound treatment that interferes with this mechanism was quantified using MVLN cells. These cells constitutively express the ER and are stably transfected with the luciferase (LUC) reporter gene and the corresponding hormone responsive element derived from the 5′-flanking region of the Xenopus Vitellogenin A2 gene (Pons et al., 1990, Demirpense et al., 1993, Joyeux et al., 1993). The repressive effect on ERα transcription activity of a test chemical is directly related to the luciferase measured in the lysate of treated MVLN cells.
Each sample was prepared as duplicate and rim wells were excluded. For luciferase signal determination 100 μl of a 1:1 mixture of Steadylite plus (Perkin Elmer; 6016759) and assay medium was added after 24 h for 15 minutes and measured in Victor X3 (Perkin Elmer). To exclude any effects caused by cell loss during the treatment, cell density was determined using Alamar Blue (Invitrogen; DAL1100). Prior to the luciferase measurement 10 μl Alamar Blue were added to each well and the plates were incubated for 2 h in the incubator. Then fluorescence was measured with Victor X3 (Perkin Elmer) at 530 nm/590 nm.

[2] = target: T1, KAT6A (Homo sapiens, UniProt Q92794); test: Kat6a activity assay (TR-FRET, acetylation of biotinylated histone H4 peptide); assay type: biochemical; conditions: recombinant human His-tagged Kat6a (amino acids 194-810), 60 mins at 22° C., read-out: KAT6A-DPF/HAT domain IC50 [mol/l] (arithmetic mean)
T1 construct: Recombinant human His-tagged Kat6a protein (amino acids 194-810); His; made in house; host or cells: Baculovirus-infected Sf9 insect cells
T1 sequence (Q92794 194-810): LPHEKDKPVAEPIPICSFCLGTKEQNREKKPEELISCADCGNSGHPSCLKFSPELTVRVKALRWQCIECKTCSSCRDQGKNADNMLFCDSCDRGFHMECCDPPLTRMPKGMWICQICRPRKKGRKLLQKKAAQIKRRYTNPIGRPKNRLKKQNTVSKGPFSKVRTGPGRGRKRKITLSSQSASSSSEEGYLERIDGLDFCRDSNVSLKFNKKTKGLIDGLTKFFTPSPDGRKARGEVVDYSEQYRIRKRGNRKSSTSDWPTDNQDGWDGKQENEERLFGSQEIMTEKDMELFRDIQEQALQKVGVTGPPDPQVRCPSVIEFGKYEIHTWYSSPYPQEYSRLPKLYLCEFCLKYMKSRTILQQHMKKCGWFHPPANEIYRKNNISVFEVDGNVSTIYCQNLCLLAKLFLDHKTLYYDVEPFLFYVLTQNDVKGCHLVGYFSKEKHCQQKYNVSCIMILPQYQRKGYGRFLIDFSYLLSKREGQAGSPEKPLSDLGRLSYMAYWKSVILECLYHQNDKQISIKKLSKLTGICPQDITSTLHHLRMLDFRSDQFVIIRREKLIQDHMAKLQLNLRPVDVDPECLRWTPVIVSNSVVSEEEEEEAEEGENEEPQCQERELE
Source text: Kat6a inhibitory activities of the compounds described in the present invention were quantified using a Fluorescence Resonance Energy Transfer (TR-FRET) assay which measures acetylation of a synthetic, biotinylated Histone-H4-derived peptide by the enzyme.
Recombinant human His-tagged Kat6a protein (amino acids 194-810), was purified in-house from Baculovirus-infected insect cells (Sf9). Histone H4 peptide (amino acids 1-24, […]-VLRD-K(Btn)-amide), which was used as substrate, was synthesized by Biosyntan GmbH, Berlin, Germany. Acetyl Coenzyme A was purchased from Sigma-Aldrich (#A-2056).
Kat6a was incubated for 60 mins at 22° C. in the presence of different concentrations of test substances (0 μM, and within the range 0.01-20 μM) in assay buffer [25 mM Tris/HCl pH 8, 1 mM EGTA, 2.5 mM Glutathion, 0.02% Chicken Albumin, 0.05% Pluronic F127, 25 mM NaCl, 220 nM H4 peptide and 600 nM Acetyl Coenzyme A].
The reaction was stopped by addition of Detection Solution (25 mM HEPES pH 7.5, 0.1% BSA, 22 nM SAXL665 (Cisbio #610SAXLE), 100 μM Anacardic Acid (Enzo #ALX-270-381), 1 nM Anti-Histone H4 (ACETYL K8) Antibody (ABCAM #AB15823) and 0.5 nM Anti-Rabbit IgG Eu (Perkin Elmer #AD0083).
The fluorescence emission at 620 nm and 665 nm after excitation at 330-350 nm was measured in a TR-FRET measuring instrument, for instance a Rubystar or a Pherastar (both from BMG Lab Technologies, Offenburg, Germany) or a Viewlux (Perkin-Elmer). The ratio of the emission at 665 nm and at […] was used as indicator of the amount of acetylated peptide.
The resulting data (ratio) were normalized, taking 0% inhibition as the mean value of control measurements where all reagents were included. In this case 50 nl DMSO were used instead of compounds. […] IC50 values were determined by regression analysis based on a 4 parameter equation (minimum, maximum, ICM, Hill; Y=Max+(Min−Max)/(1+(X/ICso) Hill) using the Screener Software (Genedata).

| Structure (SMILES) | IC50 [1] [M] | IC50 [2] [µM] |
| --- | --- | --- |
| CC(C)Oc1ccc(C(C)(C)C)cc1S(=O)(=O)NC(=O)c1cc2c(F)cc(C3CC3)cc2o1 [Example 64, N-((5-(tert-Butyl)-2-isopropoxyphenyl)sulfonyl)-6-cyclopropyl-4-fluorobenzofuran-2-carboxamide] | 1.76e-07 | 0.00433 |
| CC(C)(C)c1ccc(OCC(F)(F)F)c(S(=O)(=O)NC(=O)c2cc3c(F)cc(C4CC4)cc3o2)c1 [Example 62, N-((5-(tert-butyl)-2-(2,2,2-trifluoroethoxy)phenyl)sulfonyl)-6-cyclopropyl-4-fluorobenzofuran-2-carboxamide] | 2.4e-07 | 0.00416 |
| O=C(NS(=O)(=O)c1ccccc1)c1cc2c(OC(F)F)cc(C3CC3)cc2o1 [Example 46, N-(benzenesulfonyl)-6-cyclopropyl-4-(difluoromethoxy)benzofuran-2-carboxamide] | 1.77e-05 | 0.148 |
| CCOc1ccccc1S(=O)(=O)NC(=O)c1cc2c(-n3ccnc3)cc(C3CC3)cc2o1 [Example 58, 6-Cyclopropyl-N-(2-ethoxyphenyl)sulfonyl-4-imidazol-1-yl-benzofuran-2-carboxamide] | > 2e-05 | 0.0395 |
| CC(C)c1ccc(OCC2CC2)c(S(=O)(=O)NC(=O)c2cc3c(F)cc(C4CC4)cc3o2)c1 [Example 36, 6-Cyclopropyl-N-[2-(cyclopropylmethoxy)-5-isopropyl-phenyl]sulfonyl-4-fluoro-benzofuran-2-carboxamide] | 1.41e-07 | 0.00301 |
| CC(C)(C)c1ccc(OC2CCC2)c(S(=O)(=O)NC(=O)c2cc3c(F)cc(C4CC4)cc3o2)c1 [Example 63, N-((5-(tert-Butyl)-2-cyclobutoxyphenyl)sulfonyl)-6-cyclopropyl-4-fluorobenzofuran-2-carboxamide] | 2.24e-07 | 0.00246 |
| O=C(NS(=O)(=O)c1ccccc1-c1ccccc1)c1cc2c(OC(F)F)cc(C3CC3)cc2o1 [Example 48, 6-Cyclopropyl-4-(difluoromethoxy)-N-(2-phenylphenyl)sulfonyl-benzofuran-2-carboxamide] | 5.54e-06 | 0.0267 |
| CCOc1ccc(C(F)(F)F)cc1S(=O)(=O)NC(=O)c1cc2c(F)cc(C3CC3)cc2o1 [Example 31, 6-Cyclopropyl-N-[2-ethoxy-5-(trifluoromethyl)phenyl]sulfonyl-4-fluoro-benzofuran-2-carboxamide] | 2.31e-07 | 0.00899 |
| CC(C)(C)c1ccc(OCC2CC2)c(S(=O)(=O)NC(=O)c2cc3c(F)cc(C4CC4)cc3o2)c1 [Example 61, N-((5-(tert-butyl)-2-(cyclopropylmethoxy)phenyl)sulfonyl)-6-cyclopropyl-4-fluorobenzofuran-2-carboxamide] | 1.11e-07 | 0.00292 |
| CCOc1ccc(Oc2ccccc2)cc1S(=O)(=O)NC(=O)c1cc2c(F)cc(C3CC3)cc2o1 [Example 33, 6-Cyclopropyl-N-(2-ethoxy-5-phenoxy-phenyl)sulfonyl-4-fluoro-benzofuran-2-carboxamide] | 1.74e-06 | 0.00632 |
| CC(C)c1ccc(OCc2ccccc2)c(S(=O)(=O)NC(=O)c2cc3c(F)cc(C4CC4)cc3o2)c1 [Example 35, N-(2-Benzyloxy-5-isopropyl-phenyl)sulfonyl-6-cyclopropyl-4-fluoro-benzofuran-2-carboxamide] | 2.19e-07 | 0.00599 |
| CC(C)(C)c1ccc(OC2CC2)c(S(=O)(=O)NC(=O)c2cc3c(F)cc(C4CC4)cc3o2)c1 [Example 59, N-((5-(tert-butyl)-2-cyclopropoxyphenyl)sulfonyl)-6-cyclopropyl-4-fluorobenzofuran-2-carboxamide] | 1.04e-07 | 0.00358 |
| CCOc1ccc(OC(F)(F)F)cc1S(=O)(=O)NC(=O)c1cc2c(F)cc(C3CC3)cc2o1 [Example 34, 6-Cyclopropyl-N-[2-ethoxy-5-(trifluoromethoxy)phenyl]sulfonyl-4-fluoro-benzofuran-2-carboxamide] | 1.42e-06 | 0.0208 |
| CCOc1cc(F)ccc1S(=O)(=O)NC(=O)c1cc2c(F)cc(C3CC3)cc2o1 [Example 30, 6-Cyclopropyl-N-(2-ethoxy-4-fluoro-phenyl)sulfonyl-4-fluoro-benzofuran-2-carboxamide] | 2.84e-07 | 0.0373 |
| CC(C)(C)c1ccc(OCc2ccccc2)c(S(=O)(=O)NC(=O)c2cc3c(F)cc(C4CC4)cc3o2)c1 [Example 60, N-[(2-(Benzyloxy)-5-(tert-butyl)phenyl)sulfonyl]-6-cyclopropyl-4-fluorobenzofuran-2-carboxamide] | 8.24e-08 | 0.00267 |
| CC(C)c1ccc(OC2CCC2)c(S(=O)(=O)NC(=O)c2cc3c(F)cc(C4CC4)cc3o2)c1 [Example 65, N-[(2-Cyclobutoxy-5-isopropylphenyl)sulfonyl]-6-cyclopropyl-4-fluorobenzofuran-2-carboxamide] | 1.49e-07 | 0.00209 |
| CCOc1ccc(F)cc1S(=O)(=O)NC(=O)c1cc2c(F)cc(C3CC3)cc2o1 [Example 32, 6-Cyclopropyl-N-(2-ethoxy-5-fluoro-phenyl)sulfonyl-4-fluoro-benzofuran-2-carboxamide] | 4.23e-07 | 0.0556 |
| CCOc1ccccc1S(=O)(=O)NC(=O)c1cc2c(OC(F)F)cc(C3CC3)cc2o1 [Example 49, 6-Cyclopropyl-4-(difluoromethoxy)-N-(2-ethoxyphenyl)sulfonyl-benzofuran-2-carboxamide] | 6.97e-06 | 0.0286 |
| CCCOc1ccccc1S(=O)(=O)NC(=O)c1cc2c(F)cc(C3CC3)cc2o1 [Example 40, 6-Cyclopropyl-4-fluoro-N-(2-propoxyphenyl)sulfonyl-benzofuran-2-carboxamide] | 6.63e-07 | 0.0248 |
| CC(C)c1ccc(OCC2CC2(F)F)c(S(=O)(=O)NC(=O)c2cc3c(F)cc(C4CC4)cc3o2)c1 (stereo not shown) [Example 67, 6-Cyclopropyl-N-{(2-[(2,2-difluorocyclopropyl)methoxy)-5-isopropylphenyl]sulfonyl}-4-fluorobenzofuran-2-carboxamide] | 8.29e-08 | 0.0045 |
| CC(C)c1ccc(OCC(F)(F)F)c(S(=O)(=O)NC(=O)c2cc3c(F)cc(C4CC4)cc3o2)c1 [Example 41, 6-Cyclopropyl-4-fluoro-N-[5-isopropyl-2-(2,2,2-trifluoroethoxy)phenyl]sulfonyl-benzofuran-2-carboxamide] | 2.98e-07 | 0.00499 |
| CCOc1c(F)cccc1S(=O)(=O)NC(=O)c1cc2c(F)cc(C3CC3)cc2o1 [Example 28, 6-Cyclopropyl-N-(2-ethoxy-3-fluoro-phenyl)sulfonyl-4-fluoro-benzofuran-2-carboxamide] | 1.7e-06 | 0.106 |
| CCOc1ccc(C(C)C)cc1S(=O)(=O)NC(=O)c1cc2c(F)cc(C3CC3)cc2o1 [Example 72, 6-Cyclopropyl-N-(2-ethoxy-5-isopropyl-phenyl)sulfonyl-4-fluoro-benzofuran-2-carboxamide] | 1.23e-07 | 0.00479 |
